Experimental data published in PMC7070167, “Cell‐permeable high‐affinity tracers for Gq proteins provide structural insights, reveal distinct binding kinetics and identify small molecule inhibitors” (British Journal of Pharmacology, 2020).
Several values for one entry are separate records, joined by “and”; a condition that tells them apart may be missing. Equal values may be shown once. *1 amine or outer side, *2 acyl side, *3 side chain or, on linkers, in order; H or OH if unused. Where a SMILES comes first, the peptide text is derived from it. Bridges are numbered along the chain shown (N, C = ends). [ ]: non-standard residue; d: D form. The star is where a group is joined. Leu(3R-O(AcLeu(3R-OH))) = CC(=O)N[C@H](C(=O)O[C@H](C(C)C)[C@H](N)C(=O)O)[C@H](O)C(C)C; Leu(3R-OH,Nα-propionyl) = CCC(=O)N[C@H](C(=O)*)[C@H](O)C(C)C; X1 = CC(C)[C@@H](O[*:3])[C@H](N[*:1])C(=O)[*:2]; NMeT = CN[C@H](C(=O)O)[C@@H](C)O; dPhLac = O=C(O)[C@H](O)Cc1ccccc1; NMeA = CN[C@@H](C)C(=O)O; NMeDha = C=C(NC)C(=O)O

What was measured:
[1] = system: Gq signalling via endogenously expressed M3 receptor; test: Calcium mobilization assay, carbachol-induced (M3 receptor) in 1321N1 astrocytoma cells; format: cell-based, human; conditions: Homo sapiens, versus Carbachol (EC80), M3 receptor, read-out: pIC50, inhibition of calcium mobilization (converted)
Description: The functional activity of YM, FR, and Ebselen as Gq protein inhibitors was determined by assessing their ability to antagonize ADP‐induced calcium mobilization in 1321N1 astrocytoma cells stably transfected with the human P2Y1 receptor, which is a Gq‐coupled receptor. In addition, the compounds' inhibitory effects on Carbachol‐induced calcium mobilization were studied in the same cell line, which endogenously express the Gq‐coupled muscarinic M3 ACh receptor. The assays were performed according to a previously described procedure (Rafehi et al., 2017) using a NOVOstar microplate reader (BMG Labtech, Offenburg, Germany).

Gq proteins = target: T1, Gq proteins (Homo sapiens, UniProt P50148); test: Competition binding at human platelet membrane preparations; conditions: for Ki / pseudo‐Bmax from pseudohomologous competition: human platelet membranes, 37°C
T1 construct: Native cell membrane preparations from rat brain cortex and human blood platelets; host or cells: human platelets (intact suspension or membrane preparation)
T1 sequence (P50148 1-359): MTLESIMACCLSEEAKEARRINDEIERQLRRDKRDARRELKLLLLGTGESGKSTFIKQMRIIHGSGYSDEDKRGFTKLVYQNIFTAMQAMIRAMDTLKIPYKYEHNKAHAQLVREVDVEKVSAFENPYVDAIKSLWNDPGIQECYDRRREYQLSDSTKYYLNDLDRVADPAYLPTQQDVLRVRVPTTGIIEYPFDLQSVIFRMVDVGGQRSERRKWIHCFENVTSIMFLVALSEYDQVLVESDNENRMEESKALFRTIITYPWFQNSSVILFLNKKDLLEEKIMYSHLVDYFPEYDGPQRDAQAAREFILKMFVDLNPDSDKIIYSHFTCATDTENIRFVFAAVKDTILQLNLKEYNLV
Description: Apheresis‐purified human thrombocyte‐plasma concentrates were centrifuged (1,000 g at 4°C for 10 min), and the supernatant was decanted and centrifuged again (at 48,400 g, 4°C, for 60 min). The supernatant was kept and used as platelet‐poor plasma for control experiments; the formed pellet was resuspended in buffer 1 (50‐mM Tris–HCl, 5‐mM EDTA, and 150‐mM NaCl) and centrifuged at 48,400 g, 4°C for 60 min. The supernatant was discarded again and the pellet was resuspended in buffer 2 (5‐mM Tris–HCl and 5‐mM EDTA). The cell suspension was homogenized using an Ultra‐Turrax® (IKA Laborechnik, Staufen, Germany) for 1 min at a speed level of 4, subsequently transferred into cryovials, and stored at −80°C before use (the preparation is stable for several months). For radioligand binding assays, 50 μg of protein per vial was used, determined by the method of Bradford (Bio‐Rad Protein Assay).
The experiments were performed in 50‐mM Tris–HCl buffer, pH 7.4. The final assay volume of 200 μl contained 5 μl of test compound in DMSO, 50 μl of [^3H]PSB‐15900 or [^3H]PSB‐16254, respectively, in buffer, 5 nM of final concentration, and 100 μl of human platelet membrane preparation (50 μg of protein) or intact human platelets (7.5 × 10^6 cells/vial). Non‐specific binding was determined in the presence of 5‐μM FR. The incubation was started by the addition of membrane preparation and was performed at 37°C for 1 hr with gentle shaking. It was terminated by rapid vacuum filtration through GF/C glass‐fibre filters using a Brandel 24‐well harvester. The filters were rinsed three times with approximately 3 ml each of ice‐cold Tris–HCl buffer, 50 mM, pH 7.4 containing 0.1% Tween 20 and 0.1% BSA, to separate bound from free radioligand. The filters were punched out and transferred to scintillation vials. Luma Safe® scintillation cocktail (2.5 ml) was added, and after 6 hr of incubation, the samples were counted for 1 min each, using a liquid scintillation counter (counting efficiency 53%). Experiments in the presence of GTP were additionally performed after preincubation of the membrane preparation with GTP for 1 hr. pIC50 and pKi values were calculated using equations for one‐site competition as implemented in GraphPad Prism 6.01 (GraphPad Inc., La Jolla, CA, USA).

[2] = pKi, versus [^3H]PSB‐15900 (5 nM)
[3] = pKi, versus [^3H]PSB‐16254 (5 nM)

With `C=C1C(=O)N[C@@H](C)C(=O)N(C)[C@@H](C)C(=O)N[C@@H]([C@H](OC(=O)[C@@H](NC(=O)CC)[C@H](O)C(C)C)C(C)C)C(=O)N(C)[C@@H]([C@@H](C)OC)C(=O)O[C@H](C(C)C)[C@H](NC(C)=O)C(=O)O[C@H](Cc2ccccc2)C(=O)N1C` [FR, FR900359] (Ac-[X1][dPhLac][NMeDha]A[NMeA][X1](Leu(3R-OH,Nα-propionyl))[NMeT](Me); ester 1-C) the IC50 [1] was 0.741 nM, the Kd (Gq proteins) was 4.1 ± 0.5 nM and the Ki (Gq proteins; Ki, versus both radioligands) was 3 to 5 nM. It also gave a Ki (Gq proteins; Ki, versus [³H]PSB-15900 (5 nM), standard 24-well format) of 6.91 ± 2.25 nM, a Ki (Gq proteins; [2]) of 4.07 nM and a Ki (Gq proteins; [3]) of 2.51 nM. The Ki (Gq proteins; pKi, versus [³H]PSB-15900 (5 nM), standard 24-well format) was 6.76 nM and the “pseudo‐Bmax from pseudohomologous competition” value (Gq proteins; versus [^3H]PSB‐15900 (5 nM)) was 6.28 ± 1.12 pmol·mg^−1 of protein and 6.28 pmol·mg^−1 of protein.

In the case of `C=C1C(=O)N[C@@H](C)C(=O)N(C)[C@@H](C)C(=O)N[C@@H]([C@H](OC(=O)[C@@H](NC(C)=O)[C@H](O)C(C)C)C(C)C)C(=O)N(C)[C@@H]([C@@H](C)OC)C(=O)O[C@H](C)[C@H](NC(C)=O)C(=O)O[C@H](Cc2ccccc2)C(=O)N1C` [YM, YM‐254890] (Ac-T[dPhLac][NMeDha]A[NMeA][Leu(3R-O(AcLeu(3R-OH)))][NMeT](Me); ester 1-C), the IC50 [1] is reported as 0.891 nM, the Kd (Gq proteins) is reported as 6.29 ± 0.84 nM and the Ki (Gq proteins; Ki, versus both radioligands) is reported as 3 to 5 nM. The Ki (Gq proteins; [2]) was 5.01 nM, the Ki (Gq proteins; [3]) was 6.31 nM and the “pseudo‐Bmax from pseudohomologous competition” value (Gq proteins; versus [^3H]PSB‐16254 (5 nM)) was 6.61 ± 0.60 pmol·mg^−1 of protein and 6.61 pmol·mg^−1 of protein.
